Experimental data taken from patent publication US20070196914A1, “Methods for preparing oil bodies comprising active ingredients” (SemBioSys Genetics Inc., priority 2003, published 2007).

Legend:
[1] = Partitioning of active into washed safflower oil bodies (free oil / total oil extraction, HPLC or absorbance); type: physicochemical, safflower (Carthamus tinctorius); parameters: level of active incorporated into the oil bodies as a percentage of dry weight: concentration or dose not given beside the values; conditions: two-solvent loading, incubated overnight at 34-37° C. (CP 34-42° C.)
From the text: Hexane extraction may be used to determine the amount of active present in the free oil (free oil is defined as oil not contained within oil bodies. Note that the intact oil bodies are largely resistant to extraction by hexane alone). (Tzen et al. (1997) J. Biochem 121: 762-768.) Once the free oil has been removed from the active/oil body fraction, an analysis of the total remaining oil may be performed using for example, hexane:isopropanol, chloroform, or chloroform:methanol solution extraction. The amount of active present in both the free oil fraction and the total oil fraction can be determined by a number of methods including, but not limited to, high performance liquid chromatography (HPLC), spectrophotometry, fluorescence, or activity assays depending on the active. By comparing the amount of active in both the free oil fraction and the total oil fraction the average amount of active incorporated into the intact oil bodies can be determined. In general, the efficiency of partitioning of the active into intact oil bodies can range from about 10 to about 99.9%. More typically however the efficiency of partitioning of the active into intact oil bodies will range from about 50 to about 99% and most typically from about 90 to about 99.
Washed safflower oil bodies were prepared as described in example 1. Oil bodies were preserved with 0.1 % Neolone 950 and 0.1 % glycacil L. Clobetasol propionate (CP) (Supplier-Sigma) was weighed (12-30 mg) into a clean and dry 16×100 mm screw-cap Pyrex test tube and mixed with 300 μl of isopropanol then 200 mg of safflower oil. The combined sample was vortexed and subsequently incubated at 34° C. for 20 minutes. After incubation, the sample was re-vortexed then dried under nitrogen for 20 minutes to remove the isopropanol. One ml of washed high dry weight oil bodies were added to the CP/safflower oil mixture at room temperature, centrifuged briefly to pellet contents to allow for thorough mixing, vortexed and further incubated at 34-42° C. overnight in an air tight tube to allow for incorporation of the CP and safflower oil into the oil bodies. A hexane extraction was used to determine the amount of CP present in the free oil (free oil is defined as oil not contained within oil bodies. Note that the intact oil bodies are largely resistant to extraction by hexane alone but all hexane extractions of loaded oil bodies must be corrected for damage done to intact oil bodies by the hexane through corrections using free oil values obtained from unloaded oilbodies). Three ml of hexane are added to the tubes and the tubes are shaken to mix 32 times. The samples are centrifuged in a swinging bucket clinical centrifuge at 3220×g for one minute to separate hexane from the oil body-aqueous phase. Note that the free oil will remain in the hexane layer (top). The hexane layer is removed to another tube and the hexane extraction is repeated on the remaining CP/oil body mixture. Once the majority of the solvent from the second extraction is added to the tube containing the first extract, the hexane containing tube is transferred to a heating block. The hexane was evaporated by subjecting the tubes to a gentle stream of high purity N2 gas while heating the block to 40-45° C. for at least 1.5 hours. Once the free oil was removed from the CP/oil body fraction, an analysis of the total remaining oil was performed. The remaining total oil in intact oil bodies was determined by adding 4 ml of a 3:2 hexane:isopropanol solution (HIP) and shaking to mix vigorously until all of the oil was dissolved in the HIP solvent (about 10-20 seconds). This was followed by the addition of 2.5 ml of 6.67% Na2SO4 (w/v) to the tube and the tube was shaken for another 10 seconds. Phase separation is facilitated by centrifugation for 2 minutes at 3220×g in a swinging bucket clinical centrifuge. The organic or upper phase is removed to a second test tube using a Pasteur pipette while avoiding the transfer of the aqueous phase. […]

[2] = Partitioning of phosphatidylcholine into washed safflower oil bodies (fluorescent tracer); type: physicochemical, safflower (Carthamus tinctorius); conditions: average
Method: Washed safflower oil bodies were prepared as described in example 1. Oil bodies were preserved with 0.1% Neolone 950 and 0.1% glycacil L. Phosphatidylcholine (PC, Supplier-Sigma) was weighed (1-300 mg) into a clean and dry 16×100 mm screw-cap Pyrex test tube. A fluorescent tracer (phosphatidic acid, Supplier-Molecular Probes) was added to the PC. The amount used was 0.05-0.25% the weight of the PC of a 1 mg/ml solution of tracer (resuspended following the manufacturer's instructions). 200 ul of isopropanol was added for every 10 mg of PC to dissolve the PC/tracer mixture. Buffer (50 mM NaH2PO4, pH 8.0) was added to the isopropanol mixture using the same buffer (50 mM NaH2PO4, pH 8.0) as the oilbodies were made in. The volume was equivalent to the volume of oilbodies being loaded. The PC/tracer/isopropanol/buffer mixture was sonicated on high for 15-30 seconds. […] Both the wash fractions and the oilbody fractions were assessed for fluorescence quantities after extraction with hexane using a total oil extraction procedure. The total oil extraction was done by adding 4 mls of a 3:2 hexane:isopropanol solution (HIP) to a measured amount of the sample and shaking to mix vigorously until all of the oil was dissolved in the HIP solvent (about 10-20 seconds). […] A known quantity of isopropanol was added to the extracted fractions and the sample was quantitated using a fluorescent spectrophotometer. […]

| Compound | level of active incorporated into the oil bodies as a percentage of dry weight [1] | average % of the active added that was incorporated into the intact oil bodies [1] | amount of PC loaded in to the membrane of the oil body, % of the dry weight of the oil body ([2]; isopropanol/phosphate buffer pH 8.0, 37° C., without stearylamine) | amount of PC loaded in to the membrane of the oil body, % of the dry weight of the oil body ([2]; stearylamine included in PC/tracer mixture at approximately 30% of the amount of PC) |
| --- | --- | --- | --- | --- |
| CCCCNc1ccc(C(=O)OCCN(C)C)cc1 [tetracaine, 4-(butylamino)-Benzoic acid, 2-(dimethylamino)ethyl ester] | 2.43% | 90.8% |  |  |
| CCC(=O)O[C@]1(C(=O)CCl)[C@@H](C)C[C@H]2[C@@H]3CCC4=CC(=O)C=C[C@]4(C)[C@@]3(F)[C@@H](O)C[C@@]21C [clobetasol propionate, (11β,16β)-21-chloro-9-fluoro-11-hydroxy-16-methyl-17-(1-oxopropoxy)pregna-1,4-diene-3,20-dione] | 0.316% | 94.7% |  |  |
| O=C(O)Cc1ccccc1Nc1c(Cl)cccc1Cl [diclofenac] | 1.36% | 43.9% |  |  |
| Phosphatidylcholine [PC] |  |  | 0.12% | 1.25% |
| O=C1c2c(O)cccc2Cc2cccc(O)c21 [dithranol, 1,8-Dihydroxy-9(10H)-anthracenone] | 0.253% | 97.3% |  |  |
